Results taken from PubChem BioAssay (NCI).
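Tested at 5 concentrations; 48 h exposure; 96-well plates; endpoints linearly interpolated, else capped at highest concentration. GI50: concentration for 50% inhibition of growth. Definition used: TGI = concentration required for complete inhibition of growth.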

Experiments:
Experiment in all cases: NCI tumour cell line growth inhibition, 48 h
NCI/ADR-RES ovarian = test system: NCI/ADR-RES ovarian
HT29 colon = test system: HT29 colon
NCI-H522 lung = test system: NCI-H522 lung
OVCAR-5 ovarian = test system: OVCAR-5 ovarian
MDA-MB-435 = test system: MDA-MB-435
SN12C renal = test system: SN12C renal
TK-10 renal = test system: TK-10 renal
SF-295 CNS = test system: SF-295 CNS
K-562 leukemia = test system: K-562 leukemia
HS 578T breast = test system: HS 578T breast
SK-MEL-2 melanoma = test system: SK-MEL-2 melanoma
A498 renal = test system: A498 renal
ACHN renal = test system: ACHN renal
786-0 renal = test system: 786-0 renal
UACC-257 melanoma = test system: UACC-257 melanoma
OVCAR-8 ovarian = test system: OVCAR-8 ovarian
MALME-3M melanoma = test system: MALME-3M melanoma
SNB-75 CNS = test system: SNB-75 CNS
RPMI-8226 leukemia = test system: RPMI-8226 leukemia
SK-MEL-5 melanoma = test system: SK-MEL-5 melanoma
CAKI-1 renal = test system: CAKI-1 renal
SF-539 CNS = test system: SF-539 CNS
UACC-62 melanoma = test system: UACC-62 melanoma
IGROV1 ovarian = test system: IGROV1 ovarian
SNB-19 CNS = test system: SNB-19 CNS
SF-268 CNS = test system: SF-268 CNS
HCC-2998 colon = test system: HCC-2998 colon
EKVX NSCLC = test system: EKVX NSCLC
HOP-92 NSCLC = test system: HOP-92 NSCLC
A549 NSCLC = test system: A549 NSCLC
DU-145 prostate = test system: DU-145 prostate
MOLT-4 leukemia = test system: MOLT-4 leukemia
BT-549 breast = test system: BT-549 breast
HOP-62 NSCLC = test system: HOP-62 NSCLC
SR leukemia = test system: SR leukemia
OVCAR-3 ovarian = test system: OVCAR-3 ovarian
MCF7 breast = test system: MCF7 breast
COLO 205 colon = test system: COLO 205 colon
UO-31 renal = test system: UO-31 renal
OVCAR-4 ovarian = test system: OVCAR-4 ovarian
KM12 colon = test system: KM12 colon
U251 CNS = test system: U251 CNS
RXF 393 renal = test system: RXF 393 renal
MDA-MB-231 breast = test system: MDA-MB-231 breast
CCRF-CEM leukemia = test system: CCRF-CEM leukemia
NCI-H460 lung = test system: NCI-H460 lung
LOX IMVI melanoma = test system: LOX IMVI melanoma
HCT-116 colon = test system: HCT-116 colon
NCI-H23 lung = test system: NCI-H23 lung
HCT-15 colon = test system: HCT-15 colon
PC-3 prostate = test system: PC-3 prostate
SK-MEL-28 melanoma = test system: SK-MEL-28 melanoma
HL-60(TB) leukemia = test system: HL-60(TB) leukemia
SW-620 colon = test system: SW-620 colon
SK-OV-3 ovarian = test system: SK-OV-3 ovarian
NCI-H226 lung = test system: NCI-H226 lung
T-47D breast = test system: T-47D breast

`O=C(NNc1ccccc1)C(=O)NNc1ccccc1` was tested, and the GI50 (NCI/ADR-RES ovarian) was greater than 100 µM, the TGI (NCI/ADR-RES ovarian) was greater than 100 µM and the GI50 (HT29 colon) was greater than 100 µM. For the same compound, the TGI (HT29 colon) was greater than 100 µM, the GI50 (NCI-H522 lung) was greater than 100 µM and the TGI (NCI-H522 lung) was greater than 100 µM. The GI50 (OVCAR-5 ovarian) was greater than 100 µM, the TGI (OVCAR-5 ovarian) was greater than 100 µM and the GI50 (MDA-MB-435) was 1.84 µM. For the same compound, the TGI (MDA-MB-435) was greater than 100 µM, the GI50 (SN12C renal) was greater than 100 µM and the TGI (SN12C renal) was greater than 100 µM. It also gave a GI50 (TK-10 renal) of 0.919 µM, a TGI (TK-10 renal) greater than 100 µM and a GI50 (SF-295 CNS) of 2.1 µM. The TGI (SF-295 CNS) was greater than 100 µM, the GI50 (K-562 leukemia) was 0.396 µM and the TGI (K-562 leukemia) was greater than 100 µM. It also gave a GI50 (HS 578T breast) greater than 100 µM, a TGI (HS 578T breast) greater than 100 µM and a GI50 (SK-MEL-2 melanoma) of 2.63 µM. For the same compound, the TGI (SK-MEL-2 melanoma) was greater than 100 µM, the GI50 (A498 renal) was greater than 100 µM and the TGI (A498 renal) was greater than 100 µM. It also gave a GI50 (ACHN renal) of 2.03 µM, a TGI (ACHN renal) greater than 100 µM and a GI50 (786-0 renal) of 53.9 µM. It also gave a TGI (786-0 renal) greater than 100 µM, a GI50 (UACC-257 melanoma) greater than 100 µM and a TGI (UACC-257 melanoma) greater than 100 µM. For the same compound, the GI50 (OVCAR-8 ovarian) was greater than 100 µM, the TGI (OVCAR-8 ovarian) was greater than 100 µM and the GI50 (MALME-3M melanoma) was greater than 100 µM. The TGI (MALME-3M melanoma) was greater than 100 µM, the GI50 (SNB-75 CNS) was 11.6 µM and the TGI (SNB-75 CNS) was greater than 100 µM. The GI50 (RPMI-8226 leukemia) was greater than 100 µM, the TGI (RPMI-8226 leukemia) was greater than 100 µM and the GI50 (SK-MEL-5 melanoma) was 10.8 µM. It also gave a TGI (SK-MEL-5 melanoma) greater than 100 µM, a GI50 (CAKI-1 renal) of 0.795 µM and a TGI (CAKI-1 renal) greater than 100 µM. The GI50 (SF-539 CNS) was 2.63 µM, the TGI (SF-539 CNS) was 14.5 µM and the GI50 (UACC-62 melanoma) was 0.43 µM. It also gave a TGI (UACC-62 melanoma) greater than 100 µM, a GI50 (IGROV1 ovarian) greater than 100 µM and a TGI (IGROV1 ovarian) greater than 100 µM. It also gave a GI50 (SNB-19 CNS) greater than 100 µM, a TGI (SNB-19 CNS) greater than 100 µM and a GI50 (SF-268 CNS) of 1.63 µM. The TGI (SF-268 CNS) was greater than 100 µM, the GI50 (HCC-2998 colon) was 2.96 µM and the TGI (HCC-2998 colon) was greater than 100 µM. It also gave a GI50 (EKVX NSCLC) greater than 100 µM, a TGI (EKVX NSCLC) greater than 100 µM and a GI50 (HOP-92 NSCLC) greater than 100 µM. The TGI (HOP-92 NSCLC) was greater than 100 µM, the GI50 (A549 NSCLC) was 3.53 µM and the TGI (A549 NSCLC) was greater than 100 µM. It also gave a GI50 (DU-145 prostate) of 20.8 µM, a TGI (DU-145 prostate) greater than 100 µM and a GI50 (MOLT-4 leukemia) of 1.6 µM. For the same compound, the TGI (MOLT-4 leukemia) was greater than 100 µM, the GI50 (BT-549 breast) was 42.4 µM and the TGI (BT-549 breast) was greater than 100 µM. It also gave a GI50 (HOP-62 NSCLC) greater than 100 µM, a TGI (HOP-62 NSCLC) greater than 100 µM and a GI50 (SR leukemia) of 0.919 µM. It also gave a TGI (SR leukemia) greater than 100 µM, a GI50 (OVCAR-3 ovarian) of 17.7 µM and a TGI (OVCAR-3 ovarian) greater than 100 µM. For the same compound, the GI50 (MCF7 breast) was 5.67 µM, the TGI (MCF7 breast) was greater than 100 µM and the GI50 (COLO 205 colon) was 2.73 µM. For the same compound, the TGI (COLO 205 colon) was 48.5 µM, the GI50 (UO-31 renal) was greater than 100 µM and the TGI (UO-31 renal) was greater than 100 µM. For the same compound, the GI50 (OVCAR-4 ovarian) was 1.83 µM, the TGI (OVCAR-4 ovarian) was greater than 100 µM and the GI50 (KM12 colon) was 0.535 µM. For the same compound, the TGI (KM12 colon) was greater than 100 µM, the GI50 (U251 CNS) was greater than 100 µM and the TGI (U251 CNS) was greater than 100 µM. It also gave a GI50 (RXF 393 renal) greater than 100 µM, a TGI (RXF 393 renal) greater than 100 µM and a GI50 (MDA-MB-231 breast) of 24.1 µM. For the same compound, the TGI (MDA-MB-231 breast) was greater than 100 µM, the GI50 (CCRF-CEM leukemia) was 0.637 µM and the TGI (CCRF-CEM leukemia) was greater than 100 µM. It also gave a GI50 (NCI-H460 lung) of 3.47 µM, a TGI (NCI-H460 lung) greater than 100 µM and a GI50 (LOX IMVI melanoma) of 4.34 µM. The TGI (LOX IMVI melanoma) was greater than 100 µM, the GI50 (HCT-116 colon) was 6.42 µM and the TGI (HCT-116 colon) was greater than 100 µM. For the same compound, the GI50 (NCI-H23 lung) was greater than 100 µM, the TGI (NCI-H23 lung) was greater than 100 µM and the GI50 (HCT-15 colon) was 0.746 µM. The TGI (HCT-15 colon) was greater than 100 µM, the GI50 (PC-3 prostate) was greater than 100 µM and the TGI (PC-3 prostate) was greater than 100 µM. It also gave a GI50 (SK-MEL-28 melanoma) of 58.1 µM, a TGI (SK-MEL-28 melanoma) greater than 100 µM and a GI50 (HL-60(TB) leukemia) of 0.627 µM. For the same compound, the TGI (HL-60(TB) leukemia) was 5.28 µM, the GI50 (SW-620 colon) was 7.3 µM and the TGI (SW-620 colon) was greater than 100 µM. The GI50 (SK-OV-3 ovarian) was greater than 100 µM, the TGI (SK-OV-3 ovarian) was greater than 100 µM and the GI50 (NCI-H226 lung) was greater than 100 µM. The TGI (NCI-H226 lung) was greater than 100 µM, the GI50 (T-47D breast) was 0.52 µM and the TGI (T-47D breast) was greater than 100 µM.
